Measured values from patent US9732075B2, “Benzimidazole-proline derivatives” (IDORSIA PHARMACEUTICALS LTD, priority 2012, dated 2017).
pIC50: −log10 of the molar value.

Legend:
[1] = molecular target: human orexin-1 receptor (Homo sapiens (Human), UniProt O43613); assay: In vitro assay: intracellular calcium measurements (FLIPR), antagonistic activity; assay type: cell-based; conditions: CHO cells expressing human orexin-1 receptor, orexin-A agonist, geometric mean, read-out: IC50 Ox1
Procedure, shortened: (§1)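 hOX1R/hOX2R CHO cells, fluo-4 AM + 5 mM probenecid, 50 min 37 °C then 30 min RT. Cpd 120 min, then orexin-A 3 nM final; FLIPR peak height vs vehicle. IC50, geometric mean of repeats.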

[2] = molecular target: human orexin-2 receptor (Homo sapiens (Human), UniProt O43614); assay: as above; assay type: cell-based; conditions: CHO cells expressing human orexin-2 receptor, orexin-A agonist, geometric mean, read-out: IC50 Ox2
Procedure, shortened: as §1

Sequence of human orexin-1 receptor (O43613 whole entry): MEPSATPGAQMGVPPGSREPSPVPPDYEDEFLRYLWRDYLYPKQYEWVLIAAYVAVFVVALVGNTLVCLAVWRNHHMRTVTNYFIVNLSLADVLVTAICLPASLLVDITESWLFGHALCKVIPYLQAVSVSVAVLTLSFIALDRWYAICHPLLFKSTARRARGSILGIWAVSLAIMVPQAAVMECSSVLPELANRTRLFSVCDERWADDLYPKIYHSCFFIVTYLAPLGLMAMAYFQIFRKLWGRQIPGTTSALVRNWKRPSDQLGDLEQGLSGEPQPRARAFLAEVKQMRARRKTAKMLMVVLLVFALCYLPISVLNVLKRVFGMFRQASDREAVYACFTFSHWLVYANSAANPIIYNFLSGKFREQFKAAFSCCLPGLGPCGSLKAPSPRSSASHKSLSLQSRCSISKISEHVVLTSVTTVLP
Sequence of human orexin-2 receptor (O43614 whole entry): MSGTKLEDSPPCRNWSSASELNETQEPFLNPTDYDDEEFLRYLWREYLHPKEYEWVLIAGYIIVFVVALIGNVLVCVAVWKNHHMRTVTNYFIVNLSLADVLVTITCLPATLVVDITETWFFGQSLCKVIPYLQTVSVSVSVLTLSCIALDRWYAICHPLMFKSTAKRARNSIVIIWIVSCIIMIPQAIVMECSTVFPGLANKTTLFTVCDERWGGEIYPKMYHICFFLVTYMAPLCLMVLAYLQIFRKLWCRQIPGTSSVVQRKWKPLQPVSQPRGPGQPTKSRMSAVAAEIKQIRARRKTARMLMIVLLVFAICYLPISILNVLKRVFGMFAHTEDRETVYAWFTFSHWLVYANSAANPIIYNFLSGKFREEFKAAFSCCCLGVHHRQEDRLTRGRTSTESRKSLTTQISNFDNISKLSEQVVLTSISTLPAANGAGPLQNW

pIC50 [1]	pIC50 [2]	Compound
6.90	7.08	CSc1cccc2nc([C@@H]3CCCN3C(=O)c3nc(C)sc3-c3ccc(F)c(F)c3)[nH]c12 [Ex. 1.67]
8.40	7.48	Cc1nc(C(=O)N2CCCC2c2nc3cc(C(F)(F)F)c(Cl)cc3[nH]2)c(-c2ccccc2)s1 (stereo not shown) [Ex. 1.137]
7.44	7.80	COc1cc2nc([C@]3(C)CCCN3C(=O)c3cc(C)ccc3-c3ncccn3)[nH]c2cc1OC [Ex. 5.280]
7.80	7.48	C=C1CN(C(=O)c2nc(C)sc2-c2ccc(Cl)cc2)C(C)(c2nc3cc(OC)ccc3[nH]2)C1 (racemic) [Ex. 6.146]
7.74	7.43	CO[C@H]1CN(C(=O)c2nc(C)ccc2-n2nccn2)C(C)(c2nc3c(C)c(Cl)ccc3[nH]2)C1 (stereo partly shown) [Ex. 3.56]
6.28	6.06	Cc1ccc(-c2ccc(OC(F)(F)F)cc2)c(C(=O)N2CCC[C@@]2(C)c2nc3cc(C(F)(F)F)c(Cl)cc3[nH]2)c1 [Ex. 5.158]
8.30	8.40	C=C1C[C@@H](c2nc3cc(Cl)c(C(F)(F)F)cc3[nH]2)N(C(=O)c2c(-n3nccn3)ccc(C)c2F)C1 [Ex. 6.180]
6.97	7.37	Cc1cccc2[nH]c([C@]3(C)CCCN3C(=O)c3ccccc3-n3nccn3)nc12 [Ex. 5.52]
8.40	8.22	C=C1CC(c2nc3cccc(SC)c3[nH]2)N(C(=O)c2cc(C)sc2-c2ccc(C)c(C)c2)C1 (racemic) [Ex. 6.72]
7.89	6.11	Cc1c(Cl)ccc2[nH]c([C@]3(C)CCCN3C(=O)c3nc(-c4cccc(F)c4F)sc3-c3ccc(F)cc3)nc12 [Ex. 5.251]
7.85	7.29	COc1cc2nc([C@@H]3[C@@H](C)CCN3C(=O)c3ccc(C)cc3-n3nccn3)[nH]c2cc1OC [Ex. 4.46]
8.22	7.17	Cc1c(Cl)ccc2[nH]c([C@@H]3[C@@H](C)CCN3C(=O)c3ccccc3-n3nccn3)nc12 [Ex. 4.59]
8.10	9.22	C=C1C[C@@H](c2nc3ccc(Cl)c(C)c3[nH]2)N(C(=O)c2nc(C)sc2-c2cccc(C(F)(F)F)c2)C1 [Ex. 6.120]
7.06	5.88	Cc1cc2[nH]c([C@@H]3[C@@H](C)CCN3C(=O)c3c(-c4ncccn4)ccc(C)c3F)nc2cc1Cl [Ex. 4.132]
8.22	7.92	Cc1ccc(-n2nccn2)c(C(=O)N2C[C@H](F)C[C@H]2c2nc3c(C)c(Cl)ccc3[nH]2)c1 [Ex. 2.5]
6.67	7.41	C=C1C[C@@H](c2nc3ccc(Cl)c(C)c3[nH]2)N(C(=O)c2cc(C(F)(F)F)ccc2-n2nccn2)C1 [Ex. 6.129]
7.47	7.92	C=C1CN(C(=O)c2cc(C)ccc2-n2nccn2)C(C)(c2nc3cc(OC)ccc3[nH]2)C1 (stereo not shown) [Ex. 6.156]
6.87	7.25	C=C1C[C@@H](c2nc3cc(OC)ccc3[nH]2)N(C(=O)c2cnc(C)nc2-c2cccc(C)c2)C1 [Ex. 6.11]
8.52	8.40	Cc1ccc(-c2cccc(F)c2)c(C(=O)N2CCC[C@@]2(C)c2nc3c(C)c(C)ccc3[nH]2)c1 [Ex. 5.109]
7.39	7.24	COc1ccc(-c2ccc(OC)c(F)c2C(=O)N2CCC[C@@]2(C)c2nc3c(C)c(Cl)ccc3[nH]2)cc1 [Ex. 5.297]

pIC50 [1]	pIC50 [2]	Compound
8.22	7.52	Cc1ccc(-n2nccn2)c(C(=O)N2CCC[C@@]2(C)c2nc3cc(C(F)(F)F)c(Cl)cc3[nH]2)n1 [Ex. 5.145]
7.64	5.31	Cc1nc(C(=O)N2CC[C@H](C)[C@H]2c2nc3cc(F)c(F)cc3[nH]2)c(-c2cccc(Cl)c2)s1 [Ex. 4.12]
8.15	7.64	Cc1nc(C(=O)N2CCC[C@H]2c2nc3cc(Cl)c(C(F)(F)F)cc3[nH]2)c(-c2ccccc2)s1 [Ex. 1.146]
8.15	8.05	Cc1ccc(-c2ccccc2)c(C(=O)N2CCC[C@@]2(C)c2nc3c(C)c(C)c(Br)cc3[nH]2)c1 [Ex. 5.270]
7.82	7.25	C=C1CN(C(=O)c2nc(N(C)C)sc2-c2ccc(C)c(C)c2)C(C)(c2nc3cc(OC)ccc3[nH]2)C1 (stereo not shown) [Ex. 6.144]
6.52	7.96	COc1ccc(-n2nccn2)c(C(=O)N2CCC[C@H]2c2nc3ccc(SC)cc3[nH]2)c1 [Ex. 1.150]
7.39	7.66	C=C1C[C@@H](c2nc3cc(OC)ccc3[nH]2)N(C(=O)c2nc(C3CC3)sc2-c2cccc(OC)c2)C1 [Ex. 6.31]
8.22	7.96	Cc1cccc(-c2ccc(C)cc2C(=O)N2CCC[C@@]2(C)c2nc3cc(C)c(C)cc3[nH]2)c1 [Ex. 5.99]
7.96	7.35	C[C@@]1(c2nc3cc(C(F)(F)F)c(Cl)cc3[nH]2)CCCN1C(=O)c1c(F)cccc1-n1nccn1 [Ex. 5.133]
7.92	7.82	Cc1ccc(-c2ccc(C)cc2C(=O)N2CCC[C@@]2(C)c2nc3c(C)c(C)ccc3[nH]2)cc1 [Ex. 5.113]
7.42	7.27	Cc1ccc(-c2ccc3c(c2)OCO3)c(C(=O)N2CCC[C@@]2(C)c2nc3cc(C(F)(F)F)c(Cl)cc3[nH]2)c1 [Ex. 5.156]
7.46	5.56	COc1ccccc1-c1sc(C)nc1C(=O)N1CC[C@H](C)[C@H]1c1nc2c(Cl)cccc2[nH]1 [Ex. 4.129]
8.00	7.72	CO[C@H]1CN(C(=O)c2nc(C)sc2-c2cccc(Cl)c2)C(C)(c2nc3c(C)cccc3[nH]2)C1 (stereo partly shown) [Ex. 3.28]
7.89	7.60	CSc1cccc2nc([C@@H]3CCCN3C(=O)c3cnc(C)nc3-c3cc(Cl)cc(Cl)c3)[nH]c12 [Ex. 1.91]
8.30	7.66	Cc1ccc(-n2nccn2)c(C(=O)N2CCC[C@@]2(C)c2nc3cc(Cl)c(C)cc3[nH]2)c1 [Ex. 5.15]
6.71	5.86	COc1ccc(-n2nccn2)c(C(=O)N2CCC[C@@]2(C)c2nc3c(F)c(F)ccc3[nH]2)c1F [Ex. 5.203]
7.57	6.98	Cc1nc(C(=O)N2CCCC2c2nc3c(Cl)cc(C(F)(F)F)cc3[nH]2)c(-c2cccc(Cl)c2)s1 (stereo not shown) [Ex. 1.100]
6.69	6.80	COc1cc2nc([C@]3(C)CCCN3C(=O)c3ccccc3-c3cccc(C)c3)[nH]c2cc1OC [Ex. 5.87]
7.32	8.15	C=C1C[C@@H](c2nc3cc(C)c(C)cc3[nH]2)N(C(=O)c2cc(F)ccc2-n2nccn2)C1 [Ex. 6.192]
7.89	5.82	Cc1ccc(C(=O)N2CC[C@H](C)[C@H]2c2nc3cc(Cl)c(C)cc3[nH]2)c(-c2cccnc2)c1 [Ex. 4.110]

pIC50 [1]	pIC50 [2]	Compound
6.90	7.68	C=C1C[C@@H](c2nc3cc(Cl)c(C(F)(F)F)cc3[nH]2)N(C(=O)c2c(C)cccc2-n2nccn2)C1 [Ex. 6.183]
7.23	6.88	COc1cc(C(=O)N2CCC[C@@]2(C)c2nc3cc(C(F)(F)F)ccc3[nH]2)c(-n2nccn2)cc1OC [Ex. 5.174]
6.20	6.83	COc1ccc2nc([C@@H]3CCCN3C(=O)c3cncnc3-c3ccc(Br)c(Cl)c3)[nH]c2c1 [Ex. 1.30]
6.83	6.92	COc1cc2nc([C@]3(C)CCCN3C(=O)c3cnc(C)nc3-c3cccc(C)c3)[nH]c2cc1OC [Ex. 5.89]
7.23	6.60	COc1cc2nc([C@@H]3[C@@H](C)CCN3C(=O)c3cc(C)ccc3-n3cccn3)[nH]c2cc1OC [Ex. 4.57]
6.77	6.08	Cc1nc(C(=O)N2CCCC2c2nc3cc(OC(F)(F)F)ccc3[nH]2)c(-c2cccc(Cl)c2)s1 (stereo not shown) [Ex. 1.108]
7.51	6.00	Cc1ccc(-c2nc(C)sc2C(=O)N2CC[C@H](C)[C@H]2c2nc3c(C)cc(Cl)cc3[nH]2)cc1 [Ex. 4.96]
9.00	8.52	Cc1ccc(-n2nccn2)c(C(=O)N2CCC[C@@]2(C)c2nc3c(C)c(Cl)ccc3n2C)c1 [Ex. 7.3]
8.00	8.05	C=C1C[C@@H](c2nc3cc(Cl)c(C(F)(F)F)cc3[nH]2)N(C(=O)c2nc(C)ccc2-n2nccn2)C1 [Ex. 6.190]
6.74	8.22	C=C1C[C@@H](c2nc3cccc(C)c3[nH]2)N(C(=O)c2nc(C)sc2-c2ccc(OC)nc2)C1 [Ex. 6.103]
8.52	8.70	C=C1C[C@@H](c2nc3ccc(Cl)c(C)c3[nH]2)N(C(=O)c2c(-n3nccn3)ccc(OC)c2F)C1 [Ex. 6.133]
8.05	8.70	C=C1CC(c2nc3cc(Cl)c(C)cc3[nH]2)N(C(=O)c2nc(C3CC3)sc2-c2cccc(C)c2)C1 (racemic) [Ex. 6.95]
8.30	7.24	Cc1nc(C(=O)N2CCCC2c2nc3cc(C(F)(F)F)c(Cl)cc3[nH]2)c(-c2cccc(Cl)c2)s1 (stereo not shown) [Ex. 1.113]
7.57	7.09	Cc1ccc(-n2nccn2)c(C(=O)N2CCC[C@@]2(C)c2nc3c(Br)cc(F)cc3[nH]2)c1 [Ex. 5.25]
8.10	7.85	C=C1CC(c2nc3cccc(Cl)c3[nH]2)N(C(=O)c2cc(C)sc2-c2ccc(C)c(C)c2)C1 (stereo not shown) [Ex. 6.84]
8.00	7.68	Cc1ccc(-c2ccccc2F)c(C(=O)N2CCC[C@@]2(C)c2nc3c(C)c(C)ccc3[nH]2)c1 [Ex. 5.114]
7.82	7.37	COc1ccc(-n2nccn2)c(C(=O)N2CCC[C@@]2(C)c2nc3cc(C(F)(F)F)c(Cl)cc3[nH]2)c1F [Ex. 5.146]
7.89	9.00	COc1ccc(-n2nccn2)c(C(=O)N2C[C@H](OC)C[C@H]2c2nc3ccc(Cl)c(C)c3[nH]2)c1 [Ex. 3.12]
7.49	7.42	C=C1CN(C(=O)c2nc(C)sc2-c2ccccc2)C(C)(c2nc3cc(OC)ccc3[nH]2)C1 (racemic) [Ex. 6.154]
